Data reported in ChEMBL document CHEMBL3507680, “University of Dundee, Gates Library screen for HepG2 cell viability”.

Experiment: Human HepG2 cell viability assay in 384 well format
Assay type: toxicity, cell-based
Parameters: dose 125 nL, time 70.5 hour; cytotoxicity at 70.5 h: concentration not given beside the values
Conditions: HepG2 cells, read-out: Inhibition

**Q.** Which cytotoxicity at 70.5 h does the source give for `Cn1ccnc1CNC1CCCOc2c1ccc1ccccc21` (stereo unspecified) here?
**A.** -6.96%

**Q.** Which cytotoxicity at 70.5 h does the source give for `Cc1cc(CS(=O)(=O)NC2CCCCC2)on1` here?
**A.** -15.3%

**Q.** For `CS(=O)(=O)NCC1CCCCN1Cc1ccccc1C#N` (stereo unspecified), which cytotoxicity at 70.5 h is on record?
**A.** -10.5%

**Q.** For `Cc1cc(F)ccc1-c1ccccc1CC1CNCCNC1=O` (stereo unspecified), which cytotoxicity at 70.5 h is on record?
**A.** 5.41%

**Q.** Which cytotoxicity at 70.5 h does the source give for `Cc1cccc(C(=O)N2C[C@@H]3[C@H](CC(=O)N4CCCC4)[C@@H]3C2)n1` here?
**A.** -6.1%

**Q.** Which cytotoxicity at 70.5 h does the source give for `CNc1nc(CNC(=O)Nc2cc(Cl)ccc2F)cs1` here?
**A.** -2.3%

**Q.** Which cytotoxicity at 70.5 h does the source give for `CCc1nc(C)c(C(=O)NCCNC(=O)Cc2cccc(F)c2)s1` here?
**A.** -6.24%

**Q.** With `COc1ccc(CCC(=O)N2CCCC(n3cncn3)C2)cc1` (stereo unspecified) as the compound, how does the cytotoxicity at 70.5 h read?
**A.** -7.91%

**Q.** With `CCOC1CCCN(C(=O)c2[nH]nc(C(C)C)c2Br)C1` (stereo unspecified) as the compound, how does the cytotoxicity at 70.5 h read?
**A.** 11.3%

**Q.** Which cytotoxicity at 70.5 h does the source give for `O=C1CCC(C(=O)N2CCOC(Cc3cccc4ccccc34)C2)=NN1` (stereo unspecified) here?
**A.** 18.7%

**Q.** Which cytotoxicity at 70.5 h does the source give for `COc1ccc(CN2CCCCC2CNC(=O)OC(C)(C)C)cc1F` (stereo unspecified) here?
**A.** -7.89%

**Q.** With `CCc1ccc(CN(CC)Cc2ccc(S(=O)(=O)NC)cc2)cc1` as the compound, how does the cytotoxicity at 70.5 h read?
**A.** -1.74%

**Q.** With `COc1cccc(CNCc2ccnc(N3CCOCC3)c2)c1OC` as the compound, how does the cytotoxicity at 70.5 h read?
**A.** -4.37%

**Q.** Which cytotoxicity at 70.5 h does the source give for `O=C(O)C1(Oc2ccc3c(c2)OCO3)CCN(C2CCOCC2)CC1` here?
**A.** -14.1%

**Q.** Which cytotoxicity at 70.5 h does the source give for `COc1c(C2CCCN2c2ncnc3c2cnn3C)c(C)nn1C` (stereo unspecified) here?
**A.** -5.32%

**Q.** With `CC(C)CCn1cc(C(C(=O)O)N2CCC(N3CCSCC3)CC2)cn1` (stereo unspecified) as the compound, how does the cytotoxicity at 70.5 h read?
**A.** 3.77%

**Q.** Which cytotoxicity at 70.5 h does the source give for `CCOCC1CN(Cc2csc(C)n2)Cc2nccn2C1` (stereo unspecified) here?
**A.** 3.86%

**Q.** For `CCc1ocnc1C(=O)N1CCC2(CCCN(CC(C)(C)C)C2=O)C1` (stereo unspecified), which cytotoxicity at 70.5 h is on record?
**A.** -6.31%

**Q.** For `O=C(COc1ccccc1Cl)N1CCCC(n2ccnc2)C1` (stereo unspecified), which cytotoxicity at 70.5 h is on record?
**A.** -2.83%

**Q.** For `Cc1ccc(OCC2CCCN(C(=O)c3csc(CN(C)C)n3)C2)cc1` (stereo unspecified), which cytotoxicity at 70.5 h is on record?
**A.** -4.88%

**Q.** For `Cc1ccc(NC2CCN(C(=O)c3cncnc3C)CC2)nn1`, which cytotoxicity at 70.5 h is on record?
**A.** 14.7%

**Q.** With `O=C(c1cccnc1-n1cncn1)N1CCC(Nc2ccccc2)CC1` as the compound, how does the cytotoxicity at 70.5 h read?
**A.** -0.978%

**Q.** With `CCc1noc(C)c1C(=O)NCc1c(C)nn(CCOC)c1C` as the compound, how does the cytotoxicity at 70.5 h read?
**A.** -4.73%

**Q.** Which cytotoxicity at 70.5 h does the source give for `CCc1nnc2n1CCN(C(=O)C(C)Oc1cccc(C#N)c1)C2` (stereo unspecified) here?
**A.** 12.9%

**Q.** For `Cc1ccc(C(=O)NCCCN(C)S(C)(=O)=O)cc1-n1cccc1`, which cytotoxicity at 70.5 h is on record?
**A.** -8.22%

**Q.** With `COC(=O)[C@H](CSC)Nc1nc(C2CCCC2)nc2c1cnn2C` as the compound, how does the cytotoxicity at 70.5 h read?
**A.** -8.48%

**Q.** With `Cc1cc(C)n(C2CCN(c3ncnc4c3CCC4)C2)n1` (stereo unspecified) as the compound, how does the cytotoxicity at 70.5 h read?
**A.** 12.6%

**Q.** For `O=C(c1ccc2c(c1)CCO2)N1CCN(c2cnccn2)CC1`, which cytotoxicity at 70.5 h is on record?
**A.** -5.33%

**Q.** For `C1CN(c2nc(C3CC3)ns2)CCO1`, which cytotoxicity at 70.5 h is on record?
**A.** -5.18%

**Q.** Which cytotoxicity at 70.5 h does the source give for `Cc1cn(CC(=O)NC2CCN(C(C)C)CC2)c2ccccc12` here?
**A.** -1.25%

**Q.** With `CCOCC(O)CN1CCN(C(=O)Cc2ccccc2Cl)CC1` (stereo unspecified) as the compound, how does the cytotoxicity at 70.5 h read?
**A.** -0.667%

**Q.** With `Cc1cn2c(n1)CCC(NC(=O)CCCOCc1ccccc1)C2` (stereo unspecified) as the compound, how does the cytotoxicity at 70.5 h read?
**A.** -12.5%

**Q.** With `CNC(=O)[C@H]1C[C@@H]2CCN(Cc3nccs3)C[C@H]2O1` as the compound, how does the cytotoxicity at 70.5 h read?
**A.** -6.34%

**Q.** For `Cc1cc(NCCS(C)(=O)=O)n2nc(C)cc2n1`, which cytotoxicity at 70.5 h is on record?
**A.** 4.45%

**Q.** Which cytotoxicity at 70.5 h does the source give for `Cc1csc([C@H]2C[C@@H]3CCN(C(=O)c4cnccn4)C[C@H]3O2)n1` here?
**A.** -3.11%

**Q.** With `COCCn1/c(=N\C(=O)CN(C)S(C)(=O)=O)sc2cc(OC)ccc21` as the compound, how does the cytotoxicity at 70.5 h read?
**A.** 17.2%

**Q.** With `CN(CCn1nc2ccccn2c1=O)CC(=O)N1CCCC1` as the compound, how does the cytotoxicity at 70.5 h read?
**A.** 4.26%

**Q.** Which cytotoxicity at 70.5 h does the source give for `Cc1cc(C)c2c(NCc3nncn3C3CCCCC3)ncnc2n1` here?
**A.** -13.6%

**Q.** Which cytotoxicity at 70.5 h does the source give for `CC(=O)N(C)c1nc(CN2CCCC2Cn2cncn2)cs1` (stereo unspecified) here?
**A.** -2.86%

**Q.** For `CCc1ncnc2c1CCN(S(=O)(=O)c1ccccc1)CC2`, which cytotoxicity at 70.5 h is on record?
**A.** 3.38%

**Q.** For `CNC(=O)Cc1ccccc1NC(=O)C1CCN(C2CCCCC2)C1` (stereo unspecified), which cytotoxicity at 70.5 h is on record?
**A.** -7.23%

**Q.** For `CN(C)c1ccc(CNc2cncc(-n3cccn3)n2)cc1`, which cytotoxicity at 70.5 h is on record?
**A.** -4.47%

**Q.** With `CCCN1CCN(C(=O)c2cnn(-c3ccccc3F)c2)CC1` as the compound, how does the cytotoxicity at 70.5 h read?
**A.** 8.36%

**Q.** With `CCn1cnnc1CNC(=O)C1COc2ccc(Cl)cc2C1` (stereo unspecified) as the compound, how does the cytotoxicity at 70.5 h read?
**A.** -3.41%

**Q.** With `O=C(C1CCCO1)N1CCC(O)(Cn2ccc3ccncc32)CC1` (stereo unspecified) as the compound, how does the cytotoxicity at 70.5 h read?
**A.** 15.9%

**Q.** Which cytotoxicity at 70.5 h does the source give for `CC(=O)NC1CCCN(C(=O)NCc2ccc(-c3ccn[nH]3)cc2)C1` (stereo unspecified) here?
**A.** 3.22%

**Q.** Which cytotoxicity at 70.5 h does the source give for `Cc1csc(C2(NCC(O)COC(C)C)CCCC2)n1` (stereo unspecified) here?
**A.** -11.4%

**Q.** With `O=C(Nc1ccc(Br)cc1F)c1ccc(N2CCCCC2)nn1` as the compound, how does the cytotoxicity at 70.5 h read?
**A.** -3.25%

**Q.** With `O=C(Nc1ccc2c(c1)OCCO2)N1CCCN(Cc2cccs2)CC1` as the compound, how does the cytotoxicity at 70.5 h read?
**A.** 0.682%

**Q.** With `CCc1ccc(C(=O)Nc2ccc(CC3CC(=O)NC3=O)cc2)s1` (stereo unspecified) as the compound, how does the cytotoxicity at 70.5 h read?
**A.** -4%

**Q.** For `COc1cccc(COC(C)C(=O)NC2CCN(CC(N)=O)CC2)c1` (stereo unspecified), which cytotoxicity at 70.5 h is on record?
**A.** -7.36%

**Q.** For `CSCC(C)NCc1ccc2[nH]c(C)c(C)c2c1` (stereo unspecified), which cytotoxicity at 70.5 h is on record?
**A.** 1.07%

**Q.** With `CC(Cn1cccn1)NC(=O)NCc1ccc(S(C)(=O)=O)cc1` (stereo unspecified) as the compound, how does the cytotoxicity at 70.5 h read?
**A.** 11.7%

**Q.** With `Cc1ccc(F)c(OC2(C(=O)O)CCN(C(=O)c3ccncc3)CC2)c1` as the compound, how does the cytotoxicity at 70.5 h read?
**A.** -4.46%

**Q.** With `Cc1ccccc1OCCC(=O)NC(C)c1nnc2n1CCCCC2` (stereo unspecified) as the compound, how does the cytotoxicity at 70.5 h read?
**A.** -2.91%

**Q.** For `CN(c1ncccc1C#N)C1CCN(CCc2ccncc2)CC1`, which cytotoxicity at 70.5 h is on record?
**A.** -1.68%

**Q.** With `Cc1noc(C2CCN(C(=O)CN(C)c3ccc(Cl)cn3)CC2)n1` as the compound, how does the cytotoxicity at 70.5 h read?
**A.** -20.9%

**Q.** For `Cc1csc(N2CCCN(Cc3ccn(C)c(=O)c3)CC2)n1`, which cytotoxicity at 70.5 h is on record?
**A.** -3.93%

**Q.** Which cytotoxicity at 70.5 h does the source give for `CN1CCC(N(C)C[C@H]2CC[C@@H](Cc3ccc4c(cnn4C)c3)O2)CC1` here?
**A.** -7.57%

**Q.** Which cytotoxicity at 70.5 h does the source give for `Cn1cc(C[C@H]2[C@H](N3CCOCC3)CCN2c2ncc(F)cn2)cn1` here?
**A.** 3.47%

**Q.** For `Cc1nc(CCC(=O)N2Cc3cnc(-c4ccccc4)nc3C2)n[nH]1`, which cytotoxicity at 70.5 h is on record?
**A.** -14.8%

**Q.** For `CC(Cn1cccn1)NC(=O)N1CCN(Cc2cccs2)CC1` (stereo unspecified), which cytotoxicity at 70.5 h is on record?
**A.** 17%

**Q.** For `CCC(COC)NC(=O)N1CCC(n2ccc(C(F)(F)F)n2)CC1` (stereo unspecified), which cytotoxicity at 70.5 h is on record?
**A.** -104%

**Q.** For `CN1[C@@H](C(=O)NCC2CC2)C[C@@H]2CN(Cc3ccco3)C[C@@H]21`, which cytotoxicity at 70.5 h is on record?
**A.** -12.2%

**Q.** With `Cc1ccc(NCc2cnc3n2CCN(c2ncccn2)CC3)nn1` as the compound, how does the cytotoxicity at 70.5 h read?
**A.** -2.11%

**Q.** Which cytotoxicity at 70.5 h does the source give for `CC(=O)N1CCC[C@H]1C(=O)N(C)CCCOc1ccccc1` here?
**A.** -2.16%

**Q.** With `O=C(NCCNc1ncccn1)c1ccc(Cl)s1` as the compound, how does the cytotoxicity at 70.5 h read?
**A.** -5.84%

**Q.** For `Cc1cc(C(=O)N2CCc3nnc(N)cc3C2)c(C)n1-c1cccnc1`, which cytotoxicity at 70.5 h is on record?
**A.** -1.23%

**Q.** With `COc1ccc(OCCN(C)CCCn2cnc3c(N)ncnc32)cc1` as the compound, how does the cytotoxicity at 70.5 h read?
**A.** -5.85%

**Q.** For `Cc1nc(C2CCCN2C(=O)CN(C)Cc2ccccc2)no1` (stereo unspecified), which cytotoxicity at 70.5 h is on record?
**A.** -2.86%

**Q.** Which cytotoxicity at 70.5 h does the source give for `Cn1cc(C(=O)N2CC[C@@H]3[C@@H]2CCN3c2ccccn2)cn1` here?
**A.** -5.62%

**Q.** Which cytotoxicity at 70.5 h does the source give for `CC(C)CN1CCC(NC(=O)c2ccc(Cl)cc2Cl)CC1` here?
**A.** -1.21%

**Q.** Which cytotoxicity at 70.5 h does the source give for `Cc1nnn2c1COCC(CNC(=O)c1ccc[nH]1)C2` (stereo unspecified) here?
**A.** 7.03%

**Q.** With `CN(C)C[C@@H]1C[C@@H]2CN(C(=O)Cc3cccs3)CC[C@@H]2N1C` as the compound, how does the cytotoxicity at 70.5 h read?
**A.** 13.4%

**Q.** With `Cc1ccccc1CN(CC(=O)O)C(=O)COCC1CC1` as the compound, how does the cytotoxicity at 70.5 h read?
**A.** 0.683%

**Q.** For `Cc1c(F)cc(C(=O)O)cc1S(=O)(=O)Nc1ccccc1`, which cytotoxicity at 70.5 h is on record?
**A.** 3.77%

**Q.** For `Cn1cc(C(=O)Nc2ccc3c(c2)CN(C(=O)c2ccco2)CC3)nn1`, which cytotoxicity at 70.5 h is on record?
**A.** -4.02%

**Q.** Which cytotoxicity at 70.5 h does the source give for `COCCCS(=O)(=O)N(Cc1cccc(C)c1)Cc1ccccn1` here?
**A.** 8.58%

**Q.** With `CCn1ccnc1CN1CCN(CC(=O)NC(C2CC2)C2CC2)CC1` as the compound, how does the cytotoxicity at 70.5 h read?
**A.** 16.4%

**Q.** With `OC1(CNCCc2nc3c(s2)CCCC3)CCNC1` (stereo unspecified) as the compound, how does the cytotoxicity at 70.5 h read?
**A.** -2.83%

**Q.** For `COCCNc1nc(C)nc2c1CCN(C[C@H]1CC[C@@H](N)CC1)CC2`, which cytotoxicity at 70.5 h is on record?
**A.** 44.2%
